# Laboratory results from patent US4634707A, “5-Pyrimidinecarboxamides and treatment of leukemia and tumors therewith” (Uniroyal Chemical Company, priority 1984, dated 1987).
# Values joined by “and” are separate entries in the source; they are usually repeats but may differ in a detail not shown here. Identical values can stand only once.
# How the values were obtained:
# M5076 sarcoma = assay: NCI 3M531, i.p.-implanted M5076 sarcoma; type: in vivo, murine (mice); set-up: key to Treated/Control percent: (-): toxic dose
# Protocol: (§1) The spectrum of antitumor activity of the compound of Example 1 was determined employing a number of standard National Cancer Institute (NCI) protocols. The antitumor activity was determined in vivo against several different tumors, employing various treatment schedules and routes of administration.
# In three experiments involving the i.p. implanted M5076 sarcoma, maximum ILS values of 72, 72 and 48% were achieved after i.p. treatment on days 1, 5, 9 and 13.
# (§2) The ratio of the survival time for the treated animals (T) to the survival time for the control animals (C) determined at varying dosages in the respective in vivo tests is set forth in the table: […]
# L1210 leukemia [1] = assay: NCI 3LE37, i.c.-implanted L1210 leukemia; type: in vivo, murine (mice); set-up: key to Treated/Control percent: (-): toxic dose
# Protocol: as §1, §2
# L1210 leukemia [2] = assay: Effects of treatment schedule and route of administration against s.c.-implanted L1210 leukemia; type: in vivo
# Protocol: The influences of treatment schedule and route of administration on the antitumor activity of the compound of Example 1 were evaluated using the s.c. implanted L1210 leukemia system. The drug was tested in the form of a freeze dried dosage form containing 50 mg. of the compound and 100 mg. N-methylglucamine, reconstituted with 5 ml. of sterile water to yield a 10 mg/ml. solution at about pH 9.5.
# The percentage increases in life span (%ILS) are shown in the accompanying drawing for different treatment regimens and routes of administration. […] The highest percent ILS was 471 obtained by daily i.p. injections of the active material on a five day schedule of 45 mg/kg/injection, corresponding to a total dose of 225 mg/kg/duration of the treatment (test C in the drawing). This dosage also gave 5 cures.
# CD8F1 mammary tumor = assay: NCI 3CDJ2, s.c.-implanted staged mammary adenocarcinoma CD8F1; type: in vivo, murine (mice); set-up: key to Treated/Control percent: (-): toxic dose
# Protocol: as §1, §2
# L1210 leukemia [3] = assay: NCI 3LE31, i.p.-implanted L1210 lymphoid leukemia; type: in vivo, DBA/2 mice
# Protocol: as §1
# Samples of the test compounds of Examples 1-10 and a number of structurally-related control compounds were tested in accordance with National Cancer Institute test protocol 3LE31 (NCI Protocol 1.100, Cancer Chemotherapy Reports Part 3, Vol. 3, No. 2, September 1972) to determine the effects of the several compounds on i.p.-implanted L1210 leukemia (J. Nat'l. Cancer Inst. 13(5):1328, 1953). Each test involved implantation of the leukemia cells in six DBA/2 mice, one sex per experiment, the male mice weighing a minimum of 18 grams and the female mice weighing a minimum of 17 grams, and all of the test animals being within a three gram weight range. The test compound was administered by i.p. injections, in 0.1 ml. doses of diluted ascitic fluid (10^5 cells per dose), commencing one day after the tumor implant and continuing daily for nine days.
# The test animals were weighed and survivors recorded on a regular basis during a thirty day test period. The ratio of survival time for the treated and control animals (T/C) was determined as a percentage.
# The tests were carried out at varying dosage levels and with varying numbers of repetitions, depending upon the results obtained with each test compoud. […] A reproducible T/C of 150% or higher is considered significant activity.
# The number of mice "cured", viz., those surviving from each animal test group after the thirty day test period, is indicated in parenthesis following the T/C percentage data in Table III below: […]
# MX-1 mammary tumor = assay: NCI 3MBG5, s.r.c. human mammary carcinoma MX-1 xenograft; type: in vivo, human tumor xenograft; set-up: key to Treated/Control percent: (-): toxic dose
# Protocol: as §1, §2
# L1210 leukemia [4] = assay: NCI 3LE32, s.c.-implanted L1210 leukemia; type: in vivo, murine (mice); set-up: key to Treated/Control percent: (-): toxic dose
# Protocol: as §1, §2
# Colon 38 tumor = assay: NCI 3C872, s.c.-implanted colon 38 carcinoma; type: in vivo, murine (mice); set-up: key to Treated/Control percent: (-): toxic dose
# Protocol: as §1, §2
# B16 melanoma = assay: NCI 3B131, i.p.-implanted B16 melanoma; type: in vivo, murine (mice)
# Protocol: as §1, §2
# Lewis lung carcinoma = assay: NCI 3LL39, i.v.-implanted Lewis lung carcinoma; type: in vivo, murine (mice)
# Protocol: as §1, §2
# P388 leukemia = assay: NCI 3PS31, i.p.-implanted P388 leukemia; type: in vivo, murine (mice); set-up: key to Treated/Control percent: (-): toxic dose
# Protocol: as §1, §2
# [5] = 50 mg/kg, stated jointly for i.p. and s.c. L1210 systems
# [6] = i.p. L1210, i.p. days 1-9 (Table I)
# [7] = s.c. L1210, i.p. days 1-9 (Table I)
structure (smiles),measurement,setting,value
"O=C(Nc1ccccc1)c1c(O)[nH]c(=S)[nH]c1=O [Example 1, 1,2,3,4-tetrahydro-6-hydroxy-4-oxo-N-phenyl-2-thioxo-5-pyrimidinecarboxamide]",Treated/Control percent,M5076 sarcoma; 12.5 mg/kg,117%
same,Treated/Control percent,M5076 sarcoma; 25 mg/kg,101% and 130%
same,Treated/Control percent,M5076 sarcoma; 50 mg/kg,124% and 147%
same,Treated/Control percent,M5076 sarcoma; 100 mg/kg,148% and 172%
same,Treated/Control percent,M5076 sarcoma; 200 mg/kg,(-)
same,cures/total,"M5076 sarcoma; i.p. M5076, Days 1-13",2/10
same,increase in life-span (% ILS),"M5076 sarcoma; i.p. M5076, i.p. treatment on days 1, 5, 9 and 13, maximum values",72% and 48%
same,Treated/Control percent,L1210 leukemia [1]; 12.5 mg/kg,94% and 106%
same,Treated/Control percent,L1210 leukemia [1]; 25 mg/kg,98%
same,Treated/Control percent,L1210 leukemia [1]; 50 mg/kg,113% and 108%
same,Treated/Control percent,L1210 leukemia [1]; 100 mg/kg,128% and 134%
same,activity (in words),L1210 leukemia [1]; 100 mg/kg i.p. daily for 9 days,marginal activity
same,Treated/Control percent,L1210 leukemia [1]; 200 mg/kg,(-)
same,increase in life-span (% ILS),"L1210 leukemia [1]; i.c. L1210, 100 mg/kg i.p. daily for 9 days",28-34%
same,increases in life span by treatment and route (in words),"L1210 leukemia [2]; all treatments and routes, exceptions tests A and G (i.p. and i.v. one day, one injection)","increases in life span were noted using all treatments and routes of administration save for the i.p. and i.v. one day, one injection treatments"
same,substantial increases in life span (% ILS),L1210 leukemia [2]; each route and schedule save single treatment i.p. and i.v.,> 25%
same,toxicity (in words),"L1210 leukemia [2]; highest dose in each schedule, exception test F (i.p. every three hours on days one, five and nine)","toxicity was noted with the highest dose in each treatment schedule except for that involving i.p. administration every three hours on days one, five and nine of a nine day test"
same,cures,"L1210 leukemia [2]; test C: daily i.p., five days, 45 mg/kg/injection",5
same,increase in life span (% ILS),"L1210 leukemia [2]; test C: daily i.p., five days, 45 mg/kg/injection, total 225 mg/kg",471%
same,cures,"L1210 leukemia [2]; test I: oral daily for nine days, 124 mg/kg/injection",4
same,increase in life span (% ILS),"L1210 leukemia [2]; test I: oral daily for nine days, 124 mg/kg/injection, cumulative 1116 mg/kg",452%
same,Treated/Control percent,CD8F1 mammary tumor; 56 mg/kg,61%
same,Treated/Control percent,CD8F1 mammary tumor; 112 mg/kg,80%
same,Treated/Control percent,CD8F1 mammary tumor; 225 mg/kg,(-)
same,Treated/Control percent,CD8F1 mammary tumor; 450 mg/kg,(-)
same,Treated/Control percent,CD8F1 mammary tumor; 900 mg/kg,(-)
same,effectiveness (in words),"CD8F1 mammary tumor; s.c. implanted CD8F1, experimental conditions employed",ineffective
same,maximum increased life spans,L1210 leukemia [3]; [5],87-190%
same,cures (in words),L1210 leukemia [3]; 100 mg/kg,produced a number of cures at 100 mg/kg
same,"curative, share of test mice","L1210 leukemia [3]; 100 mg/kg i.p. daily for 9 days, i.p. L1210",at least 50%
same,toxicity of 100 mg/kg dose,"L1210 leukemia [3]; 100 mg/kg i.p. daily for 9 days, i.p. system",occasionally demonstrated some toxicity
same,activity in i.p.-implanted lymphoid leukemia test (in words),"L1210 leukemia [3]; 3LE31, reproducible T/C of 150% or higher is considered significant activity",exhibited significant activity
same,response vs control in vivo at 6.25 mg/kg,"L1210 leukemia [3]; Mus musculus, L1210, ip, 6.25 mg/kg i.p. daily for nine days, read-out: T/C % (survival time treated/control)",116%
same,response vs control in vivo at 12.5 mg/kg,"L1210 leukemia [3]; Mus musculus, L1210, ip, 12.5 mg/kg i.p. daily for nine days, read-out: T/C % (survival time treated/control)",117%
same,cures/total,L1210 leukemia [3]; [6],4/6 and 6/6
same,increase in life-span (% ILS),L1210 leukemia [3]; [6],> 275% and > 229%
same,Treated/Control percent,MX-1 mammary tumor; 75 mg/kg,98%
same,Treated/Control percent,MX-1 mammary tumor; 150 mg/kg,(-)
same,Treated/Control percent,MX-1 mammary tumor; 300 mg/kg,(-)
same,Treated/Control percent,MX-1 mammary tumor; 600 mg/kg,(-)
same,effectiveness (in words),"MX-1 mammary tumor; s.r.c. xenograft, experimental conditions employed",ineffective
same,Treated/Control percent,L1210 leukemia [4]; 12.5 mg/kg,109% and 104%
same,Treated/Control percent,L1210 leukemia [4]; 25 mg/kg,108% and 99%
same,Treated/Control percent,L1210 leukemia [4]; 50 mg/kg,140% and 127%
same,maximum increased life spans,L1210 leukemia [4]; [5],87-190%
same,Treated/Control percent,L1210 leukemia [4]; 100 mg/kg,300% and 254%
same,cures in test at specified dose,L1210 leukemia [4]; 100 mg/kg,5 and 3
same,"curative, share of test mice","L1210 leukemia [4]; 100 mg/kg i.p. daily for 9 days, s.c. L1210",at least 50%
same,Treated/Control percent,L1210 leukemia [4]; 200 mg/kg,(-)
same,cures/total,L1210 leukemia [4]; [7],5/6 and 3/6
same,increase in life-span (% ILS),L1210 leukemia [4]; [7],> 200% and > 154%
same,Treated/Control percent,Colon 38 tumor; 56 mg/kg,70% and 120%
same,Treated/Control percent,Colon 38 tumor; 225 mg/kg,51%
same,Treated/Control percent,Colon 38 tumor; 450 mg/kg,(-)
same,Treated/Control percent,Colon 38 tumor; 900 mg/kg,(-)
same,effectiveness (in words),"Colon 38 tumor; s.c. implanted colon 38, experimental conditions employed",ineffective
same,Treated/Control percent,B16 melanoma; 6 mg/kg,108%
same,Treated/Control percent,B16 melanoma; 12 mg/kg,128%
same,Treated/Control percent,B16 melanoma; 25 mg/kg,137% and 158%
same,Treated/Control percent,B16 melanoma; 50 mg/kg,152% and 169%
same,Treated/Control percent,B16 melanoma; 100 mg/kg,185% and 193%
same,increase in life-span (% ILS),"B16 melanoma; i.p. B16, days 1-9 i.p., optimal values at 100 mg/kg, 100 mg/kg",93% and 85%
same,Activity (ILS),B16 melanoma; over at least a 4-fold dosage range,25%
same,Treated/Control percent,Lewis lung carcinoma; 12.5 mg/kg,103%
same,Treated/Control percent,Lewis lung carcinoma; 25 mg/kg,106%
same,Treated/Control percent,Lewis lung carcinoma; 50 mg/kg,115%
same,Treated/Control percent,Lewis lung carcinoma; 100 mg/kg,126%
same,effectiveness (in words),"Lewis lung carcinoma; i.v. implanted, experimental conditions employed",ineffective
same,Treated/Control percent,P388 leukemia; 3.13 mg/kg,110%
same,Treated/Control percent,P388 leukemia; 6.25 mg/kg,116%
same,Treated/Control percent,P388 leukemia; 12.5 mg/kg,120%
same,Treated/Control percent,P388 leukemia; 25 mg/kg,145% and 138%
same,Treated/Control percent,P388 leukemia; 50 mg/kg,162% and 194% and 201%
same,Treated/Control percent,P388 leukemia; 100 mg/kg,(-)
same,Treated/Control percent,P388 leukemia; 200 mg/kg,(-)
same,increase in life-span (% ILS),"P388 leukemia; i.p. P388, 50 mg/kg i.p. daily, five days, maximum values",101% and 94% and 62%
same,activity (in words),P388 leukemia; standard NCI P388 preliminary screen,good activity
